Non-standard residues stand in square brackets, D forms with d. Residues, ends and D or L forms follow the SMILES beside them. ξ: configuration not given here. *: point of attachment. ξF = NC(Cc1ccccc1)C(=O)O; Boc = CC(C)(C)OC(=O)*
Row | melting point [°C] | Compound
1 | 123 to 124 | O=C(O)CCCCCCCCn1c(-c2ccccc2)c(-c2ccccc2)n(-c2ccccc2)c1=O
2 | 158 to 160 | CNC(=O)C(Cc1ccccc1)NC(=O)CNC(=O)OC(C)(C)C (stereo not drawn) (Boc-Gly-[ξF]-NHMe)
3 | 86 to 87 | COc1ccc(C2(c3cccc(CCc4ccccc4)n3)OCCCO2)cc1OC
4 | > 250 | NC(=O)c1cnc2c(NC(=O)c3c(Cl)cccc3Cl)cccc2c1
5 | 238 to 241 | CC(c1oc2ccccc2c(=O)c1-c1cccc(F)c1)n1nc(-c2ccc3c(c2)CCO3)c2c(N)ncnc21 (stereo not drawn)
6 | 125 | C#Cc1ccc2c(c1)Cc1cc(C#C)ccc1-2
7 | 226 to 229 | CNC1Cc2ccc(C(=O)Cn3cnc4cc(-c5ccc(Cl)cc5)sc4c3=O)cc2C1 (stereo not drawn)
8 | 203 to 204 | Cc1c(CO)cccc1NC(=O)CN1C[C@@H](C)N(c2ncnc3sccc23)[C@@H](C)C1
9 | 144 to 146 | Cc1nn(C)c(N)c1C(=O)Nc1ccccc1C(C)C
10 | 192 | COc1ccc(/C=C/C(=O)C2C(=O)CC(c3ccc(OC)cc3)C([N+](=O)[O-])C2c2ccco2)cc1 (stereo not drawn)
11 | 62 to 63 | CCCCCCCC(=O)NCCCCCCOS(C)(=O)=O
12 | 148 to 149 | O=C(N[C@H](Cc1cccc(OC(F)(F)C(F)F)c1)[C@@H](O)c1ccc(F)nc1)c1ccc(F)c2ccccc12 (racemic)
13 | 235 | CC(=O)N(C)c1ccc(N(CCCCN(c2ccc(N(C)C(C)=O)cc2)S(=O)(=O)c2ccccc2)S(=O)(=O)c2ccccc2)cc1
14 | 164 to 169 | CNC1=NN(C(=O)c2ccccc2C(F)(F)F)C(C)(C)S1
15 | 187 to 189 | COc1cc(C=CC(=O)Nc2c(-c3ccccc3Cl)c3cc(C(C)C)ccc3n(C)c2=O)cc(OC)c1OC(C)=O
16 | 106 to 108 | CCN1C(=O)C(C)(C)C(=O)N(C)c2cc(CN(CCn3ccc4oc(C)cc4c3=O)Cc3cncn3C)ccc21
17 | 154 to 159 | O=C(NCC12CC3CC(CC(C3)C1)C2)c1cc(-c2ccc(Cl)c(C(=O)O)n2)ccc1Cl
18 | 104 to 108 | O=C(NC1CC1)c1ccc(F)c(F)c1
19 | 88.5 to 90.5 | CCOC(=O)CNC(=O)COc1ccc(CCl)cc1
20 | 147 to 149 | CCc1cn(C2OC(CNC(=O)C(C)Oc3c(Cl)cc(Cl)c(OC)c3Cl)C(OC(=O)C(NC(=O)OC(C)(C)C)C(C)C)C2F)c(=O)[nH]c1=O (stereo not drawn)
21 | 114 to 115 | COC(=O)c1ccc2oc(CCl)c(C)c2c1
22 | 132 to 133 | FC(F)(F)c1ccc(-c2cc(Oc3ccc4cccnc4c3)ncn2)c(OCCN2CCOCC2)c1
23 | 174 to 175 | CN1C(=O)N(CC(COc2ccc(-c3ccc(S(C)(=O)=O)cc3)cc2)N(O)C=O)C(=O)C1(C)C (stereo not drawn)
24 | 77 to 78 | O=C(CCCCCNCC(O)c1ccccc1)OCc1ccccc1 (stereo not drawn)

Row | melting point [°C] | Compound
25 | 175 | O=C(Nc1cccc2[nH]ccc12)C1(OCC2CO2)C=C(Cl)C=CC1 (stereo not drawn)
26 | 178 to 180 | CCCc1nc2c(N)nc3cc(OCC(=O)c4ccccc4)ccc3c2n1CC(C)C
27 | 130 to 132 | CCC(OCC(F)F)c1ccc(Cl)c2nc3n(c12)CCCN3c1ccc(OC)nc1C (stereo not drawn)
28 | 312 to 318 | CN(C)c1ccc(/C=C\c2ccc3c(=O)[nH]ncc3c2)cc1
29 | 152 to 153 | Cc1c(NC(=O)c2ccc(-c3ccc(F)cc3)cc2)ccc2cc(CN3CCN(C)CC3)cnc12
30 | 114 to 115 | O=C(O)CCc1ccc(OCc2ccc(CN(CCc3ccccc3)c3nc(-c4ccccc4)cs3)cc2)cc1
31 | 123 to 124 | Cc1cc2c(cc1N)OC(=O)C2C (stereo not drawn)
32 | 104 to 106 | COC(=O)c1cc(C)c(-n2c(C)ccc2C)c(C)c1
33 | > 250 | NC(=O)N1C(=O)C(C(=O)c2ccoc2)c2ncc(Cl)cc21 (stereo not drawn)
34 | 94 to 97 | CCN1CSCN(CC)C1=S
35 | 145 to 147 | COC(=O)C1=C(C)NC(c2scnc2C)=NC1c1ccc(F)cc1Cl (stereo not drawn)
36 | 225 to 226 | Cc1cc(C=CC#N)cc(C(=O)c2c(C(C)C)c(=O)[nH]c(=O)n2CC2CC2)c1
37 | 139 to 140 | Cc1cc(C(=O)N2Cc3cccn3Cc3ccccc32)ccc1C1=CCC2CC1C2(C)C (stereo not drawn)
38 | 163 to 165 | COC(=O)N1CCC2=NNC(=O)CC2C1 (stereo not drawn)
39 | 193 to 195 | Cc1c(CC(=O)O)c2cc(O)c(F)cc2n1C(=O)c1ccc(Cl)cc1
40 | 112 to 113 | CCc1cc(-c2ccccc2)nn1-c1ccc([N+](=O)[O-])cc1
41 | > 250 | Cc1nc2c(OCCNCc3ccccc3)cccc2[nH]1
42 | 325 to 328 | O=C(O)c1ccc2oc3c(c(=O)c2c1)CCC3=Cc1ccccn1
43 | 156 to 158 | Nc1ccc(Sc2cc(F)cc(F)c2)c(Cl)c1
44 | 49.7 to 50.9 | COc1cc2c3c(c1)c(=O)c(Cc1cccnc1)cn3-c1cc(Br)ccc1O2
45 | 95 to 97 | Cc1cccc(N2CC(c3cccc(-c4ccc(S(C)(=O)=O)cc4)c3)=CN2)n1
46 | 98 to 100 | CCCc1c(OCCCCc2nc3ccc(C(=O)O)cc3[nH]2)ccc(C(C)=O)c1O
47 | 164 to 170 | Nc1nc(N)nc(-c2cccc(-n3cccc3)c2)n1
48 | 80 to 87 | O=C(O)c1ccc(NCCCCCCCCCCc2ccccc2)cc1

Row | melting point [°C] | Compound
49 | 66 to 69 | CN1CCC(Oc2ccc(C#N)cc2C(F)(F)F)CC1
50 | 188 to 189 | CCCCCCS(=O)(=O)c1ccccc1C1NC(=O)NC1=O (stereo not drawn)
51 | 94 to 96 | O[C@@H]1C=C[C@H](COC(c2ccccc2)(c2ccccc2)c2ccccc2)C1 (relative stereo)
52 | 88 to 89 | CCn1c(=O)n(C)c(=O)c2c(C)onc21
53 | 154 to 155 | CCc1nn(C2CCCC2)c2cc(C3=NOC(C)(c4noc(-c5cc(OC)cc(OC)c5)n4)C3)ccc12 (stereo not drawn)
54 | 125 to 126 | COc1ccc(OC)c2c1C(=O)C=C(SCCCO)C2=O
55 | 196 to 197 | CC(=O)c1cn(Cc2ccccc2)c(=O)[nH]c1=O
56 | 251 to 252 | CCn1c(=O)c2[nH]c(C(C)=Cc3ccccc3)nc2n(CC)c1=O
57 | 196 | Nc1ccccc1NCCCN1CCC(n2c(=O)[nH]c3cc(Cl)ccc32)CC1
58 | 137 to 139 | O=C(O)COc1ccccc1OCCC(c1ccccc1)(c1ccccc1)c1ccccc1
59 | 135 to 137 | COc1cc(C(C)=O)ccc1OCCCN1CCN(n2ncc3ccc(F)cc32)CC1
60 | 201 to 205 | CNc1c(F)cc2c(=O)c(C(=O)O)cn(-c3nc(NCCO)c(F)cc3F)c2c1Cl
61 | 76 to 78 | CCN(CC)CCNC(=O)c1cc(I)cc2c(Cl)ccnc12
62 | 185 to 187 | NS(=O)(=O)c1ccc(NC(=O)CCl)c(F)c1
63 | 228 to 231 | COc1ccc2[nH]c3c(c2c1)C[C@@]1(C)C(=O)N(CCCN(C)C)C(=O)N1[C@@H]3c1cccc(O)c1 (racemic)
64 | 68 to 71 | CCOC(=O)CC(=O)Nc1ccc(F)cc1
65 | 65 to 66 | CCOC(=O)c1c(-c2ccccc2C)c2cc(Cl)ccc2oc1=O
66 | 40 | COc1cccc(C(=O)c2sccc2Br)c1
67 | 55 to 58 | Cc1cccc(Cl)c1NC(=O)n1nc(Oc2cccc(C(F)(F)F)c2)cc1C
68 | 183 to 184 | Cc1cc(S(F)(F)(F)(F)F)ccc1C(=O)NC(=N)N
69 | 68 to 70 | CCCc1oc2ccccc2c1C(=O)c1ccc(OCCBr)cc1
70 | 80 to 82 | OCc1ccc(Cn2nc(OCc3ccccc3)c3ccccc32)o1
71 | 90 to 91 | CSC(=S)NCc1ccc(O)cc1
72 | 107 to 108 | O=Cc1cc(OCCCC(=O)N(CCO)CCCCC2CCCC2)ccc1[N+](=O)[O-]

Row | melting point [°C] | Compound
73 | 230 to 232 | CC(=O)NCC1CN(c2ccc(N3CCN(c4nnc(C(N)=O)s4)C(F)C3)cc2)C(=O)O1 (stereo not drawn)
74 | 221 to 223 | CC(C)(Cc1ccccc1)C(NC(=O)CCc1ccccc1)Nc1c(Nc2cccnc2)c(=O)c1=O (stereo not drawn)
75 | 237 to 241 | COc1cc2c(c3c1OC(C)(C)C3)C(c1cccc(NC(=O)c3ccc(CP(=O)(O)O)cc3)c1)=NC(C)(C)C2
76 | 82 to 84 | Cc1cc(Oc2cccc(C(F)(F)F)c2)nn1C(=O)Nc1ccc(C(F)(F)F)cc1
77 | 135 to 136 | COc1nc(C)nc(NC(=O)NS(=O)(=O)c2ccccc2OCC2(C)OCCO2)n1
78 | 325 to 327 | O=c1[nH]c2ccc(Cl)cc2c2c1[nH]c1ccccc12
79 | 138 to 144 | Oc1cc(CCl)nc(C(Cl)(Cl)Cl)n1
80 | 177 to 180 | CCS(=O)(=O)Nc1ccc(S(=O)(=O)C=CC#N)cc1
81 | 216 to 220 | CCN1CCNC(=O)c2ccc(Nc3ncc(Cl)c(N[C@@H]4CCCC[C@H]4NS(C)(=O)=O)n3)cc21
82 | 172 to 174 | CC(=O)N1CCC(c2n[nH]c3cc(Cl)ccc23)CC1
83 | 86 to 90 | CC1=NS(=O)(=O)N(C)C(Cl)=N1
84 | 189 to 190 | CCCCS(=O)(=O)Nc1ccc(Oc2cc(C)cc3cccnc23)cc1
85 | 133 to 134 | COc1cccc(CN2Cc3cc(OC)c(O)cc3C(OC)C2)c1 (stereo not drawn)
86 | 100 to 103 | O=S1CCOCC1c1ccc(Cl)c(Cl)c1 (stereo not drawn)
87 | 91 to 92 | Cc1onc(-c2ccc(C(F)(F)F)cc2)c1CCl
88 | 178 to 180 | Cn1nc2cccc(OCCF)c2c1S(N)(=O)=O
89 | > 250 | NCC1Cc2cc(-c3ccccc3F)cc(F)c2O1 (stereo not drawn)
90 | 146 to 147 | COC(=O)c1c(Br)c(F)cc2nn(C)cc12
91 | 139 to 141 | CC(C)(C)C(O)(C=Cc1ccc(Cl)cc1)Cn1ccnc1 (stereo not drawn)
92 | > 300 | Nc1nc2c(Cc3cccnc3)c[nH]c2c(=O)[nH]1
93 | 156 to 157 | CCCC(=O)Nc1nc(=O)n(C2OC(C)C(O)C2O)cc1F (stereo not drawn)
94 | 118 to 119 | CCOC(=O)c1ccc(C(C(N)=O)C(CCc2ccccc2)c2ccccc2N2CCCCC2)cc1 (stereo not drawn)

Row | Compound | melting point [°C]
95 | Cc1nc2cc(NC(=O)c3cc4cccnc4n3Cc3ccncc3)ccc2n1C | 236 to 246
96 | CC(C)OC(=O)Nc1cccc(-c2ccnc3c(C(=O)c4ccoc4)cnn23)c1 | 127 to 129
97 | C=CCN(CC=C)Cc1nc(-c2ncn3c2CN(C)C(=O)c2c(Cl)cccc2-3)no1 | 126 to 130
98 | COC(=O)[C@H](CO)NC(=O)c1ncn2c1CN(C)C(=O)c1ccccc1-2 | 180 to 181

— a melting point compilation (Tetko et al.; mined from patent text by program, amines drawn as free bases though some values may be those of a salt)
